9 molecules from ChEMBL document CHEMBL1201862, “PubChem BioAssay data set” (2004) can be followed below.

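A five-concentration, 48-hour dose response in 96-well plates underlies each endpoint, interpolated linearly between surrounding concentrations. Abbreviation: GI50, concentration required for 50% inhibition of growth.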 Calls of active or inactive are those of the source. Cut-off read from the data, not from the text of the source: active = GI50 up to about 1.1 µM and inactive = higher.

Among the test systems are NCI/ADR-RES; HCT-15; M14; MDA-MB-435; ACHN; HL-60; NCI-H23; T47D; SF-268; U-251; HCC 2998; IGROV-1; SNB-75; HCT-116; OVCAR-4; OVCAR-8; HOP-62; SK-MEL-5; SR; MDA-MB-231.
Common to all, as to test: NCI anticancer screen, dose series, 48 h

Consider `COc1ccc(/N=N/C(=O)NC(CC(C)C)C(=O)NC(CC(C)C)C(=O)O)cc1` (centres undefined), for which the GI50 in the assay on NCI/ADR-RES was > 100 µM (inactive); in the assay with HCT-15, 19.5 µM; with M14, 29.9 µM (inactive); with MDA-MB-435, 34.5 µM (inactive); with ACHN, 12.5 µM (inactive); in the assay on HL-60, 17.5 µM (inactive). For the same molecule, the GI50 in the assay on NCI-H23 is > 100 µM (inactive); with T47D it was 26.9 µM (inactive); with SF-268 it was 16.9 µM (inactive); with U-251 it was > 100 µM (inactive); with HCC 2998 it was 30.9 µM (inactive); with IGROV-1, > 100 µM (inactive). Also, the GI50 in the assay on SNB-75 was > 100 µM (inactive); with HCT-116 it was 86.5 µM (inactive); in the assay with OVCAR-4, > 100 µM (inactive); with OVCAR-8, > 100 µM (inactive); in the assay with HOP-62, > 100 µM (inactive); in the assay on SK-MEL-5, 18.1 µM (inactive).
Turning to `O=C1CCCCC1=C(I)I`, the GI50 in the assay on M14 is 18 µM (inactive); with MDA-MB-435, 19.1 µM (inactive); in the assay on ACHN it was 17.6 µM (inactive); in the assay with HL-60, 4.49 µM (inactive); in the assay with SR it was 16.1 µM (inactive); in the assay on T47D it was 15 µM (inactive). The GI50 in the assay on SF-268 is 19.4 µM (inactive); with U-251, 16.3 µM (inactive); in the assay on HCC 2998, 15.8 µM (inactive); in the assay with IGROV-1, 15.5 µM (inactive); in the assay with SNB-75, 18.5 µM (inactive); in the assay on HCT-116 it was 16.6 µM (inactive). The GI50 in the assay with OVCAR-4 was 12.1 µM (inactive); with OVCAR-8, 33.9 µM (inactive); with HOP-62, 28.7 µM (inactive); in the assay on SK-MEL-5, 17.9 µM (inactive).
As to `Cc1nnc2sc(Cc3cnc(N)s3)nn12`, the GI50 with NCI/ADR-RES was > 100 µM (inactive); in the assay on HCT-15, more than 100 µM; in the assay with M14, > 100 µM (inactive); in the assay on ACHN it was > 100 µM (inactive); with HL-60, > 100 µM (inactive); with SR, > 100 µM (inactive). In addition, the GI50 in the assay on NCI-H23 is > 100 µM (inactive); with T47D it was > 100 µM (inactive); in the assay with SF-268, > 100 µM (inactive); in the assay with U-251, > 100 µM (inactive); in the assay on HCC 2998 it was > 100 µM (inactive); in the assay with IGROV-1, 91.4 µM (inactive). For the same molecule, the GI50 in the assay on SNB-75, with HCT-116, in the assay with MDA-MB-231, in the assay on OVCAR-4, in the assay with OVCAR-8 and in the assay on HOP-62 was > 100 µM (inactive) in each case. The GI50 in the assay on SK-MEL-5 is > 100 µM (inactive).
As for `Cc1nn(C(=O)Cc2ccccc2)c2c1C(c1ccccc1)SC(=N)N2` (centres undefined), the GI50 in the assay with HCT-15 is more than 100 µM; in the assay on M14 it was > 100 µM (inactive); in the assay on MDA-MB-435, > 100 µM (inactive); in the assay on ACHN, > 100 µM (inactive); in the assay with HL-60, > 100 µM (inactive); in the assay on SR, > 100 µM (inactive). Also, the GI50 was > 100 µM (inactive) with NCI-H23; > 100 µM (inactive) in the assay on T47D; > 100 µM (inactive) with SF-268; > 100 µM (inactive) in the assay on HCC 2998; > 100 µM (inactive) with IGROV-1; 43.5 µM (inactive) with SNB-75. Further, the GI50 with HCT-116, with MDA-MB-231, with OVCAR-8, in the assay on HOP-62 and in the assay with SK-MEL-5 was > 100 µM (inactive) in each case.
Regarding `CCOP(=O)(OCC)[C@]12C[C@@H](C)C=C[C@H]1COC2=O`, the GI50 in the assay on M14, in the assay with MDA-MB-435, with ACHN, with SR, in the assay on NCI-H23 and in the assay with T47D was > 100 µM (inactive) throughout. For the same molecule, the GI50 in the assay with SF-268, with U-251, in the assay with HCC 2998, in the assay on SNB-75, in the assay on HCT-116 and in the assay on MDA-MB-231 was > 100 µM (inactive) in each case. The GI50 in the assay with OVCAR-4, with OVCAR-8, in the assay with HOP-62 and in the assay with SK-MEL-5 was > 100 µM (inactive) throughout.
For `CC(C)=C[C@H]1CCC2(OCCO2)[C@]1(C)COCc1ccccc1`, the GI50 was 36.8 µM (inactive) with NCI/ADR-RES; 39.5 µM with HCT-15; 33.3 µM (inactive) with M14; 26.4 µM (inactive) with MDA-MB-435; 34.4 µM (inactive) in the assay with ACHN; 25.8 µM (inactive) in the assay on NCI-H23. For the same molecule, the GI50 was 35.2 µM (inactive) in the assay with T47D; 48.9 µM (inactive) in the assay on SF-268; 16.4 µM (inactive) in the assay on HCC 2998; 45.4 µM (inactive) with SNB-75; 29.9 µM (inactive) with HCT-116; 19.7 µM (inactive) with MDA-MB-231. Besides, the GI50 with OVCAR-4 was 33.8 µM (inactive); in the assay with OVCAR-8, 38.6 µM (inactive); in the assay with SK-MEL-5, 16.3 µM (inactive).
On to `CN(CCSCCN(C)C(=O)OC(C)(C)C)C(=O)OC(C)(C)C`, for which the GI50 was > 100 µM (inactive) with NCI/ADR-RES; more than 100 µM in the assay on HCT-15; > 100 µM (inactive) in the assay on M14; > 100 µM (inactive) with MDA-MB-435; > 100 µM (inactive) in the assay with ACHN; > 100 µM (inactive) in the assay with SR. Besides, the GI50 was > 100 µM (inactive) in the assay on NCI-H23; > 100 µM (inactive) in the assay on SF-268; > 100 µM (inactive) with U-251; > 100 µM (inactive) in the assay on HCC 2998; > 100 µM (inactive) in the assay on IGROV-1; 61.5 µM (inactive) with SNB-75. The GI50 in the assay on HCT-116, in the assay with MDA-MB-231, with OVCAR-4, in the assay on OVCAR-8, in the assay on HOP-62 and with SK-MEL-5 was > 100 µM (inactive) in each case.
`Cc1cc(C)c2c(c1)C(=O)/C(=C/c1ccccc1C(=O)O)C2`: the GI50 was 54.3 µM in the assay with HCT-15; 90.4 µM (inactive) with M14; > 100 µM (inactive) with ACHN; 57.7 µM (inactive) in the assay with HL-60; 62.4 µM (inactive) with SR; 39 µM (inactive) in the assay with T47D. Moreover, the GI50 is 61.7 µM (inactive) with SF-268; 35.7 µM (inactive) in the assay on U-251; 51.3 µM (inactive) in the assay on HCC 2998; > 100 µM (inactive) with IGROV-1; 40 µM (inactive) in the assay on SNB-75; 63 µM (inactive) in the assay on HCT-116. Moreover, the GI50 in the assay on MDA-MB-231 is 50.2 µM (inactive); in the assay on OVCAR-4, 45.1 µM (inactive); in the assay on OVCAR-8, 68.4 µM (inactive); in the assay on HOP-62 it was 67.5 µM (inactive); with SK-MEL-5 it was 59.8 µM (inactive).
Consider `Cc1cccc2oc3c(CC(=O)O)cccc3c(=O)c12`, for which the GI50 in the assay on NCI/ADR-RES was > 100 µM (inactive); in the assay with HCT-15, more than 100 µM; with M14, > 100 µM (inactive); in the assay with MDA-MB-435, > 100 µM (inactive); in the assay with ACHN, > 100 µM (inactive); in the assay on HL-60, > 100 µM (inactive). In addition, the GI50 is > 100 µM (inactive) in the assay with SR; > 100 µM (inactive) with NCI-H23; > 100 µM (inactive) in the assay with SF-268; > 100 µM (inactive) in the assay on U-251; 20.5 µM (inactive) in the assay on HCC 2998; > 100 µM (inactive) in the assay with IGROV-1. Further, the GI50 with HCT-116, in the assay with MDA-MB-231, with OVCAR-4, with OVCAR-8, in the assay on HOP-62 and in the assay on SK-MEL-5 was > 100 µM (inactive) throughout.
